According to patent publication US20260028352A1, “MACROCYCLIC IMIDAZO [1,2-B] PYRIDAZINE DERIVATIVE, PREPARATION METHOD THEREFOR, AND USE THEREOF” (SUZHOU LANGRUI BIOPHARMACEUTICAL CO., LTD., priority 2022, published 2026):
Read-outs that look alike come from different tables or passages of the source.

What was measured:
[1] = ether bond, 2.0 h
TRKA^WT kinase = TRKA^WT kinase (Homo sapiens (Human), UniProt P04629); assay: Inhibitory activity against TRKA WT kinase (Caliper mobility shift); format: biochemical; conditions: in vitro kinase assay
TRKA^WT kinase, sequence (P04629 33-796): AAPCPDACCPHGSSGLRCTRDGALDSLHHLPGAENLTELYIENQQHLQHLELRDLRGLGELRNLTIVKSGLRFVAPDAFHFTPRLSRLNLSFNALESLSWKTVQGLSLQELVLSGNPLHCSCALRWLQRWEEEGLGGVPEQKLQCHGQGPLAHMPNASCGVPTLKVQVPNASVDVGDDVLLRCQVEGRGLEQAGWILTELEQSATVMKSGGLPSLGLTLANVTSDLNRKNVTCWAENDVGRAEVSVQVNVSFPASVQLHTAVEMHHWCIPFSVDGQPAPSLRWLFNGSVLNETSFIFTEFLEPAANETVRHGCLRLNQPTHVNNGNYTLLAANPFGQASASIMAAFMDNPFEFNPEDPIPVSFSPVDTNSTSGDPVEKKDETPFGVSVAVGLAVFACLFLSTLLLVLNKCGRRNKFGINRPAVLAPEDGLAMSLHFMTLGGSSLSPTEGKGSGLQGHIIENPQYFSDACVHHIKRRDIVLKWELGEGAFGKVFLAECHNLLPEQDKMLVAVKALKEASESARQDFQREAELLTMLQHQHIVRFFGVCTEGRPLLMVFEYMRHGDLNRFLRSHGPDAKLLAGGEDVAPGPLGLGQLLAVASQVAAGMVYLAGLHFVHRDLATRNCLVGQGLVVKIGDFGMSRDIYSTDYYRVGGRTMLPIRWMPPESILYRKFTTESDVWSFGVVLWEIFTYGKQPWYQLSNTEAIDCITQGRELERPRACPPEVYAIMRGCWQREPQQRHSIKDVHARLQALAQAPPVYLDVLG
Procedure, shortened: (§1)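 Kinase preincubated 10 min at room temperature with compound (10-point 3-fold series from 1000 nM), then reaction started with ATP and Kinase Substrate 22. Substrate conversion read by Caliper mobility shift; IC50 from variable-slope log(inhibitor)–response fit of % inhibition versus no-enzyme and no-compound controls.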

TRKA^F589L kinase = TRKA^F589L kinase (Homo sapiens (Human), UniProt P04629, F589L); assay: Inhibitory activity against TRKA(F589L) kinase (Caliper mobility shift); format: biochemical; conditions: in vitro kinase assay
TRKA^F589L kinase, sequence (P04629 33-796 F589L): as the sequence (P04629 33-796) above, with F557L counted along it
Procedure, shortened: as §1

[2] = tested on: Ba/F3-TPM3-NTRK1-G667C cells; assay: Growth inhibition of Ba/F3-TPM3-NTRK1-G667C cells (Cell Titer-Glo); format: cell-based; conditions: 72 hours, CTG; read-out: inhibitory activity IC50 Ba/F3-TPM3-NTRK1-G667C
Procedure, shortened: (§2)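 Ba/F3 cells were exposed for 72 hours to serially DMSO-diluted compound at a top final concentration of 10 μM. Viability was read by Cell Titer-Glo luminescence after the plate equilibrated 30 min at room temperature and was then shaken 1 hour in the dark at room temperature.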

[3] = tested on: Ba/F3-TPM3-NTRK1-G595R cells; assay: Growth inhibition of Ba/F3-TPM3-NTRK1-G595R cells (Cell Titer-Glo); format: cell-based; conditions: 72 hours, CTG; read-out: inhibitory activity IC50 Ba/F3-TPM3-NTRK1-G595R
Procedure, shortened: as §2

[4] = tested on: Ba/F3-TPM3-NTRK1-WT cells; assay: Growth inhibition of Ba/F3-TPM3-NTRK1-WT cells (Cell Titer-Glo); format: cell-based; conditions: 72 hours, CTG; read-out: inhibitory activity IC50 Ba/F3-TPM3-NTRK1-WT
Procedure, shortened: as §2

Structure (SMILES)	ring closure, isolated yield ([1]; from OCc1ccnc(-c2cnc3ccc(NCc4cc(F)ccc4O)nn23)c1, 13-membered ring, SOCl2, K2CO3, DCM/DMF, 20.3 mM, 90.0 °C, 2 steps)	IC50 (TRKA^WT kinase)	IC50 (TRKA^F589L kinase)	IC50 [2]	IC50 [3]	IC50 [4]	ring closure, isolated yield ([1]; from OCc1ccnc(-c2cnc3ccc(NCc4ccccc4O)nn23)c1, 13-membered ring, SOCl2, K2CO3, DCM/DMF, 22.8 mM, 90.0 °C, 2 steps)	ring closure, isolated yield ([1]; from CC(Nc1ccc2ncc(-c3cncc(CO)c3)n2n1)c1cc(F)ccc1O, 13-membered ring, SOCl2, K2CO3, DCM/DMF, 15.7 mM, 90.0 °C, 2 steps)	ring closure, isolated yield ([1]; from OCCc1ccnc(-c2cnc3ccc(NCc4ccccc4O)nn23)c1, 14-membered ring, PPh3/DIAD, THF, 16.6 mM, 60.0 °C)
Fc1ccc2c(c1)CNc1ccc3ncc(n3n1)-c1cc(ccn1)CO2 [Example I-5, (E)-5^4-fluoro-4-oxa-7-aza-1(3,6)-imidazo[1,2-b]pyridazina-2(2,4)-pyridina-5(1,2)-benzenacycloheptaphane]	11.6%	1.36 nM	< 5 nM	94 nM	91.5 nM	7.94 nM			
c1ccc2c(c1)CNc1ccc3ncc(n3n1)-c1cc(ccn1)CO2 [Example I-6, (E)-4-oxa-7-aza-1(3,6)-imidazo[1,2-b]pyridazina-2(2,4)-pyridina-5(1,2)-benzenacycloheptaphane]		2.76 nM	6.1 nM	526 nM	527 nM	18 nM	13.6%		
CC1Nc2ccc3ncc(n3n2)-c2cncc(c2)COc2ccc(F)cc21 (stereo not drawn) [Example I-7, (E)-5^4-fluoro-6-methyl-4-oxa-7-aza-1(3,6)-imidazo[1,2-b]pyridazine-2(3,5)-pyridina-5(1,2)-benzenacycloheptaphane]		< 3 nM	< 5 nM	220 nM	198 nM	2.8 nM		22.6%	
c1ccc2c(c1)CNc1ccc3ncc(n3n1)-c1cc(ccn1)CCO2 [Example I-8, (E)-6-oxa-3-aza-2(3,6)-imidazo[1,2-b]pyridazina-1(2,4)-pyridina-5(1,2)-benzenacyclooctaphane]		2.46 nM	< 5 nM	562 nM	562 nM	3.4 nM			34%
